Assay results reported in PubChem BioAssay AID248 (DTP/NCI, 2004).
Values joined by “and” are separate entries in the source; they are usually repeats but may differ in a detail not shown here. Equal entries are not always repeated. Inconclusive results and toxic doses are left out. Rule as the data show it: active = T/C of 150% or more; inactive = T/C below 125%.

Test system: L1210 leukemia ip in BDF1 mice, survival T/C
Test: NCI In Vivo Anticancer Drug Screen. Data for tumor model L1210 Leukemia (intraperitoneal) in B6D2F1 (BDF1) mice
Settings: endpoint: mean survival time, higher = longer survival
Outline: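 Survival endpoint. Drug-treated group vs vehicle group, expressed as T divided by C. Tumor passaged by transplantation.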

Measured: T/C

CC(C)=CCC1=C(O)c2ccccc2C(=O)C1=O
inactive: dose: 0.5 mg/kg/injection, schedule: Q01DX Z (ip), vehicle: water 91 % of control | dose: 2.0 mg/kg/injection, schedule: Q01DX Z (ip), vehicle: water 94 % of control | dose: 8.0 mg/kg/injection, schedule: Q01DX Z (ip), vehicle: water 91 % of control | dose: 11.0 mg/kg/injection, schedule: Q01DX009 (ip), vehicle: carboxymethylcellulose (CMC) 107 % of control | dose: 11.0 mg/kg/injection, schedule: Q01DX009 (ip), vehicle: other 95 % of control and 102 % of control | dose: 15.0 mg/kg/injection, schedule: Q01DX Z (ip), vehicle: water 88 % of control | dose: 16.67 mg/kg/injection, schedule: Q#B X027 (ip), vehicle: water 111 % of control | dose: 16.67 mg/kg/injection, schedule: Q#B X027 (sc), vehicle: water 97 % of control | dose: 17.0 mg/kg/injection, schedule: Q01DX009 (ip), vehicle: carboxymethylcellulose (CMC) 98 % of control | dose: 17.0 mg/kg/injection, schedule: Q01DX009 (ip), vehicle: other 94 % of control and 103 % of control | dose: 20.0 mg/kg/injection, schedule: Q01DX Z (ip), vehicle: water 96 % of control | dose: 25.0 mg/kg/injection, schedule: Q01DX009 (ip), vehicle: carboxymethylcellulose (CMC) 103 % of control | dose: 25.0 mg/kg/injection, schedule: Q01DX009 (ip), vehicle: other 95 % of control and 97 % of control | dose: 25.0 mg/kg/injection, schedule: Q#A X Z (ip), vehicle: water 90 % of control | dose: 30.0 mg/kg/injection, schedule: Q01DX Z (ip), vehicle: water 88 % of control | dose: 33.33 mg/kg/injection, schedule: Q#B X027 (oral), vehicle: water 100 % of control | dose: 33.33 mg/kg/injection, schedule: Q#B X027 (sc), vehicle: water 100 % of control | dose: 37.5 mg/kg/injection, schedule: Q01DX009 (ip), vehicle: carboxymethylcellulose (CMC) 98 % of control | dose: 37.5 mg/kg/injection, schedule: Q01DX009 (ip), vehicle: other 100 % of control and 102 % of control | dose: 40.0 mg/kg/injection, schedule: Q01DX Z (ip), vehicle: water 96 % of control | dose: 50.0 mg/kg/injection, schedule: Q01DX015 (ip), vehicle: water 95 % of control | dose: 50.0 mg/kg/injection, schedule: Q#A X Z (ip), vehicle: water 97 % of control | dose: 56.0 mg/kg/injection, schedule: Q01DX009 (ip), vehicle: carboxymethylcellulose (CMC) 102 % of control | dose: 60.0 mg/kg/injection, schedule: Q01DX Z (ip), vehicle: water 94 % of control | dose: 66.67 mg/kg/injection, schedule: Q#B X027 (ip), vehicle: water 120 % of control | dose: 66.67 mg/kg/injection, schedule: Q#B X027 (oral), vehicle: water 97 % of control | dose: 66.67 mg/kg/injection, schedule: Q#B X027 (sc), vehicle: water 100 % of control | dose: 84.0 mg/kg/injection, schedule: Q01DX009 (ip), vehicle: other 102 % of control and 104 % of control | dose: 90.0 mg/kg/injection, schedule: Q01DX Z (ip), vehicle: water 92 % of control | dose: 100.0 mg/kg/injection, schedule: Q01DX Z (oral), vehicle: water 91 % of control | dose: 100.0 mg/kg/injection, schedule: Q#A X Z (ip), vehicle: water 95 % of control | dose: 125.0 mg/kg/injection, schedule: Q#A X018 (oral), vehicle: other 102 % of control | dose: 126.0 mg/kg/injection, schedule: Q01DX009 (ip), vehicle: other 101 % of control and 104 % of control | dose: 133.33 mg/kg/injection, schedule: Q#B X027 (oral), vehicle: water 102 % of control | dose: 135.0 mg/kg/injection, schedule: Q01DX Z (ip), vehicle: water 94 % of control | dose: 189.0 mg/kg/injection, schedule: Q01DX009 (ip), vehicle: other 109 % of control and 122 % of control | dose: 200.0 mg/kg/injection, schedule: Q01DX001 (oral), vehicle: other 114 % of control | dose: 200.0 mg/kg/injection, schedule: Q01DX Z (ip), vehicle: water 102 % of control | dose: 200.0 mg/kg/injection, schedule: Q01DX Z (oral), vehicle: water 96 % of control | dose: 250.0 mg/kg/injection, schedule: Q#A X018 (oral), vehicle: other 97 % of control | dose: 300.0 mg/kg/injection, schedule: Q01DX Z (oral), vehicle: water 98 % of control | dose: 400.0 mg/kg/injection, schedule: Q01DX001 (oral), vehicle: other 100 % of control | dose: 600.0 mg/kg/injection, schedule: Q01DX001 (oral), vehicle: other 98 % of control | dose: 900.0 mg/kg/injection, schedule: Q01DX001 (oral), vehicle: other 96 % of control
